Data taken from patent US20150238637A1, “Blood-brain Barrier Epitopes and Uses Thereof” (NATIONAL RESEARCH COUNCIL OF CANADA, priority 2005, published 2015).

Experiments:
HCEC monolayers = experiment: Transport across the in vitro blood brain barrier model; type: cell-based, human; details: for effect on FC5 transport across the in vitro BBB model: 30 minutes preincubation
Procedure: HCEC (80,000 cells/membrane) were seeded on a 0.5% gelatin coated Falcon tissue culture inserts (pore size-1 μm; surface area 0.83 cm^2) in 1 ml of growth medium. The bottom chamber of the insert assembly contained 2 ml of growth medium supplemented with the fetal human astrocyte-conditioned medium in a 1:1 (v/v) ratio (Muruganandam et al., 1997).
Transport studies were performed 7 days post-seeding as described previously (Muruganandam et al., 1997; Muruganandam et al., 2002). Filter inserts were rinsed with transport buffer [phosphate buffered saline (PBS) containing 5 mM glucose, 5 mM MgCl2, 10 mM HEPES, 0.05% bovine serum albumin (BSA), pH 7.4] and allowed to equilibrate at 37° C. for 30 minutes. Experiments were initiated by adding 10 μg/ml FC5 to either apical or basolateral side of inserts containing either 0.5% gelatin-coated inserts without cells, control HCEC or HCEC pre-exposed to various pharmacological modulators for 30 min. Transport studies were conducted at 37° C. with plates positioned on a rotating platform stirring at 30-40 rpm. Aliquots (100 μl) were collected from the opposite chamber at various time intervals (5, 15, 30, 60, 90 minutes) and replaced with fresh buffer. The amount of FC5 transported across empty inserts or HCEC monolayers was determined by enzyme linked immunosorbent assay (ELISA) (see below). To control for HCEC membrane integrity and to estimate paracellular diffusion, the apical-to-basolateral and basolateral-to-apical clearance rates of [^14C]-sucrose were determined and calculated essentially as described previously (Muruganandam et al., 2002; Garberg et al., 2005) across the same monolayers used for FC5 transport studies. Sample-associated radioactivity in 50 μl aliquots was measured using a Mircobeta Trilux liquid scintillation counter (Wallac, Finland).
Clearance was calculated as Cl (ml)=CA/CI×VA, where CI is the initial tracer or sdAb concentration in the donor chamber, CA is the tracer or sdAb concentration in the accepter chamber, and VA is the volume of the acceptor chamber. […] The effects of pharmacological agents on FC5 transmigration was subsequently assessed at 30 min.
To measure the amount of FC5 transmigrated across the in vitro BBB model, 50 μl aliquots collected from the appropriate compartment were immobilized overnight at room temperature in a HisGrab nickel coated 96-well plate (Pierce). After blocking the plates with 2% BSA for 2 hours at room temperature, anti-c-Myc monoclonal antibody conjugated to HRP was added at a dilution of 1:5000 for 1 hour. After washing, the bound FC5 was detected with tetramethylbenzidine (TMB)/hydrogen peroxide substrate system. The signal was measured at […] on a microtiter plate reader. FC5 concentrations in collected aliquots were determined from a standard curve constructed using known FC5 concentrations.

HCEC = experiment: Uptake into human cerebromicrovascular endothelial cells (immunofluorescence); type: cell-based; details: data not shown; for effect on FC5 uptake into HCEC: 30 minutes preincubation
Procedure: The uptake of FC5 into HCEC was tested 15-90 minutes after adding 5 μg/ml of FC5 in the absence or presence of various pharmacological modulators of endocytosis. To visualize the intracellular distribution of FC5, cells were fixed, permeabilized and probed with the anti-c-myc antibody (1:100; 1 hour) followed by incubation with FITC-labeled anti-mouse IgG (1:250; 1 hour).

[1] = 5 μg/ml, 30 minutes pretreatment

## COC(=O)Nc1nc2ccc(C(=O)c3cccs3)cc2[nH]1 [nocodazole]
HCEC monolayers; 20 μM, 30 minutes pre-incubation
  effect on FC5 transcytosis: did not interfere

## CN(C)CCCn1cc(C2=C(c3c[nH]c4ccccc34)C(=O)NC2=O)c2ccccc21 [BIM-1, bisindolyl-maleimide-1]
HCEC monolayers; BIM-1 5 μM, 30 minutes pre-incubation
  reduction of FC5 transcytosis across HCEC: 25%

## chondroitin sulfate C
HCEC monolayers; 10 μg/ml pre-incubation
  effect on FC5 transcytosis across the BBB in vitro: did not affect

## C[C@@H]1[C@H](O)[C@@H](C)/C=C/C=C/CC/C=C/C=C/C=C/C=C/C(O[C@H]2O[C@H](C)[C@@H](O)[C@H](N)[C@@H]2O)CC2O[C@](O)(CC(O)C(O)CCC(O)CC(O)CC(O)CC(=O)O[C@H]1C)CC(O)C2C(=O)O (stereo partly shown) [nystatin]
HCEC monolayers; [1]
  effect on FC5 transmigration across in vitro BBB model: None of the caveolae-mediated endocytosis inhibitors tested affected

## CCCC(=O)Nc1ncnc2c1ncn2[C@@H]1O[C@@H]2COP(=O)(O)O[C@H]2[C@H]1OC(=O)CCC [db-cAMP, dibutyryl-cAMP]
HCEC monolayers; db-cAMP 500 μM, 30 minutes pre-incubation
  effect on FC5 transcytosis across HCEC: not affected

## poly-L-lysine
HCEC; poly-L-lysine 300 μM
  effect on FC5 uptake into HCEC: Neither compound affected
HCEC monolayers; poly-L-lysine 300 μM
  effect on FC5 transport across the in vitro BBB model: Neither compound affected

## chondroitin sulfate A
HCEC monolayers; 10 μg/ml pre-incubation
  effect on FC5 transcytosis across the BBB in vitro: did not affect

## heparin sulfate
HCEC monolayers; heparin sulfate 50 U/ml pre-incubation
  effect on FC5 transcytosis across the BBB in vitro: did not affect

## holo-transferrin
HCEC; 100-fold excess of holo-transferrin
  effect on FC5 uptake: not reduced
HCEC monolayers; 100-fold excess (1 mg/ml) of holo-transferrin, 10 μg/ml FC5, 30 minutes
  effect on FC5 transendothelial transport: not reduced

## N=C(N)NC(=O)c1nc(Cl)c(N)nc1N [amiloride]
HCEC monolayers; amiloride 500 μM
  effect on transendothelial migration of FC5: no effect

## O=CC[C@@H](O)[C@H](O)[C@H](O)CO [2-deoxyglucose]
HCEC monolayers; 5 mM sodium azide and 5 mM 2-deoxyglucose together, 30 min, glucose-free medium
  effect on FC5 transmigration: near-complete inhibition

## CN(C)CCCN1c2ccccc2Sc2ccc(Cl)cc21 [chlorpromazine]
HCEC monolayers; Homo sapiens, HCEC, chlorpromazine 50 μg/ml, 30 minutes pretreatment, read-out: inhibition of FC5 transmigration across in vitro BBB model
  inhibition at 50 µg/mL: 52%

## methyl-β-cyclodextrin
HCEC monolayers; methyl-β-cyclodextrin 5 mM, 30 minutes pretreatment
  effect on FC5 transmigration across in vitro BBB model: None of the caveolae-mediated endocytosis inhibitors tested affected

## O=c1c(-c2ccc(O)cc2)coc2cc(O)cc(O)c12 [genistein]
HCEC monolayers; genistein 50 μM, 30 minutes pre-incubation
  effect on FC5 transcytosis across HCEC: not affected

## CC[C@@]1([C@@H]2O[C@@H]([C@H]3O[C@@](O)(CO)[C@H](C)C[C@@H]3C)C[C@@H]2C)CC[C@H]([C@]2(C)CC[C@]3(C[C@H](O)[C@@H](C)[C@@H]([C@@H](C)[C@@H](OC)[C@H](C)C(=O)O)O3)O2)O1 [Monensin, monensin]
HCEC monolayers; Homo sapiens, HCEC, 0.5 h, monensin 25 μM, 30 minutes, 10 μg/ml FC5, read-out: inhibition of FC5 transcytosis across HCEC
  inhibition at 25 µM: 34%

## CCCCC[C@@H](O)[C@H]1C(=O)O[C@H](C)[C@@H](O)/C=C/C=C/C=C/C=C/C=C(\C)[C@@H](O)C[C@H](O)C[C@H](O)C[C@H](O)C[C@H](O)C[C@H](O)C[C@@H]1O [filipin]
HCEC monolayers; [1]
  effect on FC5 transmigration across in vitro BBB model: None of the caveolae-mediated endocytosis inhibitors tested affected

## protamine sulfate
HCEC; protamine sulfate 40 μg/ml
  effect on FC5 uptake into HCEC: Neither compound affected
HCEC monolayers; protamine sulfate 40 μg/ml
  effect on FC5 transport across the in vitro BBB model: Neither compound affected

## mannan
HCEC monolayers; mannan 1 mg/ml
  effect on FC5 transmigration: did not affect

## C[C@@H]1O[C@@H](O[C@H]2C[C@@H](O)[C@]3(CO)[C@H]4[C@H](O)C[C@]5(C)[C@@H](C6=CC(=O)OC6)CC[C@]5(O)[C@@H]4CC[C@]3(O)C2)[C@H](O)[C@H](O)[C@H]1O [ouabain]
HCEC monolayers; ouabain 1 μM, 30 minutes pretreatment
  reduction of FC5 transport across HCEC: 40%
